In patent US20260021107A1, “STIMULATOR OF INTERFERON GENES AGONISTS” (INIMMUNE CORP., priority 2022, published 2026):

Experiments:
[1] = test system: THF-ISRE cells; test: THF luciferase activity, primary (initial) screen in THF-ISRE cells; type: cell-based, human; conditions: inducible luciferase reporter signalling upon IRF3 activation, compounds 50 μM to 0.391 μM, 18 hours, luminescence
Description: (§1) STING molecules were screened to determine human STING pathway specificity. THF-ISRE, THF-ISRE STING knock-out (KO), and THF-ISRE TRIF/MAVS KO cell lines contain an inducible luciferase reporter construct that will signal upon IRF3 activation. THF-ISRE STING KO cell line only has the TRIF/MAVS pathway to activate IRF3. THF-ISRE TRIF/MAVS KO cell line uses only the STING pathway for IRF3 activation. Luciferase activity was determined by measuring luminescence.
(§2) The three cell lines were maintained in T-75 flasks with DMEM/High Glucose (Cytiva™, Logan, UT), Pen/Strep/Glutamine (Hyclone™, Logan, UT), and 10% heat inactivated FBS (Hyclone™, Logan, UT).
(§3) For primary screening, THF-ISRE cells were plated at a density of 15,000 cells/well in opaque flat bottom 96-well tissue culture plates. Cells incubated for 36 hours and treated with DMSO (Sigma™, St. Louis, MO) formulated compounds. Before treatment, cell media was changed to 2% FBS in DMEM with antibiotics. Compounds were serially diluted 2-fold, starting at 50 μM and ending at 0.391 μM. Luciferase activity was measured after 18 hours by addition of Steady-Glo Luciferase Assay System (Promega™, Madison, WI) at a 1:1 ratio and luminescence read by plate reader.

[2] = test system: human STING pathway; test: THF luciferase activity, secondary screen in THF-ISRE TRIF/MAVS KO cells (STING only); type: cell-based; conditions: only the STING pathway for IRF3 activation
Description: as §1, §2, §3
The secondary screening used the same procedure as above with THF-ISRE STING KO and THF-ISRE TRIF/MAVS KO cells. If the compound was human STING specific, only THF-ISRE TRIF/MAVS KO cells would have luciferase activity.

Row | Compound | luciferase activity (initial screen) [1] | luciferase activity in TRIF/MAVS KO cells (STING pathway use) [2]
1 | O=C(NCc1c(F)cc(F)cc1F)c1ccc2c(c1)SCC(=O)N2Cc1c(O)cccc1F [INI-3069] | positive luciferase activity | use the STING pathway for luciferase activity
2 | COc1cccc(F)c1CN1C(=O)CSc2cc(C(=O)NCc3c(F)cc(F)cc3F)ccc21 [INI-3067] | positive luciferase activity | use the STING pathway for luciferase activity
3 | CC1Sc2cc(C(=O)NCc3ccco3)ccc2N(Cc2c(O)cccc2F)C1=O (centres unmarked) [INI-3070] | positive luciferase activity | use the STING pathway for luciferase activity
4 | CC1Sc2cc(C(=O)NCc3c(F)cc(F)cc3F)ccc2N(Cc2c(O)cccc2F)C1=O (centres unmarked) [INI-3071] | positive luciferase activity | use the STING pathway for luciferase activity
